Measurements as given in patent publication US5441983A, “Treatment of infection by enveloped virus with calix(N)arene compounds” (Genelabs Incorporated, priority 1992, dated 1995).
≈ marks a conversion by molar mass, not a printed value.

Tests used:
[1] = tested on: HSV-1 or HSV-2; assay: Inhibition of HSV cytopathic effect (CPE) in Vero cells; conditions: 10-20 μg/ml
Experimental: In the method reported in Example 5, Vero cells were infected with HSV-1 or HSV-2 and allowed to grow in culture until cytopathic effects were clearly visible. In the absence of infection, the cells form an even monolayer of fibro-blastlike cells. With HSV infection, a cytopathic effect characterized by round cells in suspension is clearly evident after 24 hours, followed by clumping and lysis of infected cells after 24-72 hours.
In the drug inhibition study reported in Example 5, cells were exposed to HSV-1 or HSV-2 virus and, at the same time, to a selected aryl macrocyclic compound, at a final drug concentration of 10 μg/ml. Twenty-four hours later the cells were examined for cytopathic effect.
Vero cells were maintained in RPMI-1640 medium supplemented with 5% fetal calf serum, 100 Units of penicillin per ml and 100 μg of streptomycin per ml at 37° C. in a humidified incubator containing 7% CO2. The HSV strains HSV-1 (Kos-1) and HSV-2 (333) were used.
1×10^5 Vero cells were plated in each well of a 96 well microtitre plate in 0.2 ml RPMI-1640 medium containing 5% FCS and 0.1% methyl cellulose (15 cps). After overnight incubation, and cell doubling, the medium was aspirated and replaced with 100 .1 of the same medium containing 2% FCS, and 50.1 control or drug solution to a final drug concentration of 10 μg/ml and 50 μl virus, containing about 3 PFU/cell, i.e., 6 x 10^s PFU/well, of HSV-1 or HSV-2.
The cells were cultured for 24 hours at 37° C. at which time cytopathic effects are clearly visible. In the absence of viral infection, the cells form an even monolayer of fibroblast cells. With viral infection, the cells form a suspension of round cells, followed by cell clumping, whose appearance is easily distinguishable from normal fibroblast cells. If no detectable cytopathic effect was produced, the test was repeated with 10 μg/ml. A parallel set of cells without virus inoculation were done as a control for cytotoxicity to Vero cells.

[2] = tested on: HIV-HXB; assay: Inhibition of syncytia formation, HIV-HXB (HTLV-IIIB); conditions: Human immunodeficiency virus 1, 18 h, read-out: HIV-HXB ED100, complete inhibition of syncytia formation
Experimental: Briefly, cells chronically infected with HTLV-IIIB or RF-II HIV strains were incubated in the presence of serial dilutions of the selected KY compound, then further cocultured with indicator cells. The extent of syncytia formation was scored under phase microscopy.
Representative calix(n)arene compounds from Table 2 were tested for inhibition of cytopathic effects in cells infected with one of two HTLV-III strains, HTLV-IIIB and RF-II strains, as described in Example 12, and in the subsection above.
Human CD4^+ indicator cells (VB) and chronically infected H9 cells were maintained in RPMI-1640 medium supplemented with 5% fetal calf serum, 100 Units of penicillin per ml and 100 μg of streptomycin per ml at 37° C. in a humidified incubator containing 7% CO2.
For the fusion assay, serial dilutions between 1:2 and 1:2^8 of a selected KY compound, 1 mg/ml in PBS were made in a 96 well round bottom plate. The diluted KY compound was transferred to a 96 well flat-bottom plate. To each well was added 25 μg chronically infected H9 cells (at 2×10^6, cells/ml), or cells chronically infected with RF-II strain HIV, followed by incubation at 37° C. for 45 minutes. To each well was then added 25 μl VB cells (about 5×10^4 cells), and the cells and virus isolates were cocultured for 18 hours in a humid 5% CO2 atmosphere.

[3] = tested on: HIV-RF-II; assay: Inhibition of syncytia formation, HIV-RF-II; conditions: for EC100: Human immunodeficiency virus 1, 18 h, read-out: HIV-RF-II ED100, complete inhibition of syncytia formation
[4] = tested on: panel of human cell lines; assay: Cytotoxicity in proliferating human cell lines; type: cell-based; conditions: Homo sapiens, 72 h, read-out: IC50 drug concentration (50% cell death)
Experimental: In addition, a large number of representative aryl macrocyclic compounds (including those shown in Tables 1 and 2) were examined for toxicity in cell culture, using a panel of human cell lines, as detailed in Example 4. Briefly, the selected KY- or Y- compound was added to cell cultures at a final concentration of 5, 10, 25, 50, or 100 μg/ml. Three days later the cells were washed to remove drug, and stained with a vital stain, to determine the percentage of dead cells in each culture. The IC50 drug concentration, i.e., value concentration of drug which produced 50% cell death, was 50 μg/ml for KY-143, KY-151, and KY-163, and 100 μg/ml or greater for all of the other KY compounds tested. For KY-1, which has a molecular weight of 1404 daltons, a drug concentration of 100 μg/ml is equivalent to about […].
A panel of human cell lines was used to check the toxicity of the drugs, including: KB (nasopharyngeal carcinoma), HeLaS3 (cervical epithelial carcinoma), PLC (hepatocarcinoma), HepG2 (human hepatocarcinoma) HepG2T14 (hepatocarcinoma transfected with HBV), WI38 (normal human lung fibroblast), BT549 (breast cancer), SW480 ([…]), and A549 (lung cancer).
Three days later, the medium was removed and the cells were stained with Commassie Blue in 40% methanol and 7% acetic acid. The results are discussed in Section II above.

[5] = tested on: HSV-2; assay: Plaque reduction assay, HSV-2, Vero cells; type: cell-based, HSV-2 (333); conditions: Human alphaherpesvirus 2, Vero
Experimental: (§1) used in Table 3 were further tested for activity against HSV infection in
(§2) a plaque reduction assay, as detailed in Example 6. Here Vero cells, after
(§3) overnight incubation, were exposed to serial dilutions of KY compound,
(§4) from 0.625-10 μg/ml, and HSV-1 or HSV-2 virus for two hours. After
(§5) washing to remove drug and extracellular virus, the cells were further
(§6) incubated for 2 days, then stained and counted for plaque formation.
(§7) Percent inhibition was determined by dividing plaques produced by total
(§8) number of plaques in infected, untreated controls. From the concentration
(§9) effect curve of plaque inhibition (expressed as percent of control), the
(§10) concentration of compound required to produce 50% plaque reduction,
(§11) IC50, was determined. The IC50 values for infection by HSV-1 and
(§12) HSV-2 infection is given in the right-hand columns in Table 3. With

[6] = tested on: RSV; assay: Inhibition of RSV cytopathic effect in HEp2 cells; type: cell-based; conditions: human respiratory syncytial virus, HEp-2; HEp2 cells, cytopathic effect; read-out: ED50 RSV
[7] = tested on: HSV-1; assay: Plaque reduction assay, HSV-1, Vero cells; type: cell-based, HSV-1 (Kos-1); conditions: Human alphaherpesvirus 1, Vero, plaque reduction, Vero cells
Experimental: as §1, §2, §3, §4, §5, §6, §7, §8, §9, §10, §11, §12

[8] = tested on: Influenza A (Taiwan); assay: Inhibition of influenza A cytopathic effect (clumping) in MDCK cells; type: cell-based, Influenza A virus (A/Taiwan strain); conditions: Influenza A virus, 24 h, 50% reduction in percent clumped cells, read-out: ED50 Influenza A (Taiwan)
Experimental: With virus infection, a cytopathic effect characterized by cell clumping is observed. For each compound tested, drug concentrations of 0.1, 1, 10, 25, and 100 μg/ml were added to cultured cells at the time of virus infection, as detailed in Examples 9 and 11. […] The inhibition of clumping was plotted as a function of drug concentration, to determine the dose effective to produce a 50% reduction in the percent clumped cells, measured with respect to control (no drug treatment).
Assays to assess the antiviral activity of KY- and Y-compounds in tissue culture were performed in 96-well flat-bottom tissue culture plates (Falcon 307), using conditions similar to those used in the cytotoxicity assays described above. In these assays, compound was tested in quadruplicate by serially diluting the compound in 2% FCS-MEM using serial two-fold dilutions (0.05 ml/well). A 0.05 ml volume of the appropriate virus containing approximately 100 median tissue culture infectious doses (TCID50) was then added to all wells except those set aside as antiviral and tissue control wells. Next, approximately 3×10^3 HEp2 cells (0.1 ml) were added to each well. Control wells containing antiviral and no virus (antiviral control), containing virus but no antiviral (virus control), or containing medium without virus or antiviral (tissue control), were included in each test. The challenge virus was then back titrated. All assay plates were incubated at 35° C. for 5 to 7 days in a 5% CO2 incubator.
The anti-influenza A activity of KY compounds was evaluated as described in Example 9, except that MDCK cells (kidney cell line) was used for infection in vitro by influenza virus (strain A/Taiwan).

[9] = tested on: HSV-1 KOS (PFA)'; assay: Inhibition of viral yield, drug-resistant HSV-1 KOS(PFA)'; conditions: Human alphaherpesvirus 1, HeLa, read-out: ID90
Experimental: (§13) These compounds tested were the nucleoside analogs acyclovir (ACV), ganciclovir (DHPG), phosphonoformate (PFA), and phosphomethoxyethyladenine (PMEA). Inhibition of viral yield was determined, as above, by infecting Hela cells in the presence of wild type or drug-resistant strains of HSV-1 or HSV-2, and serial dilutions of a selected anti-viral compound, and infecting Vero cells with serial dilutions of the Hela cell lysate, as above.
(§14) The KOS (HSV-1) and 333 (HSV-2) are wild type viruses; the KOS(PMEA)' and KOS(PFA)' are drug-resistant HSV-1 strains having a DNA polymerase mutation. The 333(DHPG) strain is a drug-resistantHSV-2 strain having a thymidine kinase mutation.
(§15) The following strains of HSV-1 and HSV-2 virus were used: KOS, a wild type HSV-1 virus; KOS (PMEA) and KOS (PFA), both drug-resistant HSV-1 viruses having a DNA polymerase mutation; 333, a wild type HSV-2 HSV-2 virus, and 333 (DHPG), a drug-resistant HSV-2 virus having a thymidine kinase mutation.
(§16) After growth at 37° C. for 24 hours in 2 ml of RPMI-1640 containing 2% FCS and penicillin and streptomycin (P/S), the cells were frozen at -70° C. until the time for titration. The cells were freeze/thawed 3 times to release virus from the cells, serially diluted 10 fold, and the serial dilutions were added to Vero cells in culture. After 2 hours incubation at 37° C. the virus was removed and 0.5 ml methycellulose (4K cps) in RPMI-1640 and 2% FCS+P/S was added. Two days later, the medium was removed. The cells were stained in 0.8% crystal violet in 50% ethanol. The plaques formed were counted and the titer was calculated from the fold of dilutions. From the drug dose response, the concentration of each drug required to effect a 90% inhibition of virus yield, the IC90 concentration was determined.

[10] = tested on: HSV-1 KOS; assay: Inhibition of viral yield, wild type HSV-1 KOS; conditions: Human alphaherpesvirus 1, HeLa, read-out: ID90
Experimental: as §13, §14, §15, §16

[11] = tested on: HSV-1 KOS(PMEA)'; assay: Inhibition of viral yield, drug-resistant HSV-1 KOS(PMEA)'; conditions: Human alphaherpesvirus 1, HeLa, read-out: ID90
Experimental: as §13, §14, §15, §16

[12] = tested on: HSV-2 333; assay: Inhibition of viral yield, wild type HSV-2 333; conditions: Human alphaherpesvirus 2, HeLa, read-out: ID90
Experimental: as §13, §14, §15, §16

[13] = tested on: HSV-2 333 (DHPG)'; assay: Inhibition of viral yield, drug-resistant HSV-2 333(DHPG)'; conditions: Human alphaherpesvirus 2, HeLa, read-out: ID90
Experimental: as §13, §14, §15, §16

`CCNS(=O)(=O)c1cc2cc(S(=O)(=O)NCC)c3c(O)c2c(O)c1Cc1c(S(=O)(=O)NCC)cc2cc(S(=O)(=O)NCC)c(c(O)c2c1O)Cc1c(S(=O)(=O)NCC)cc2cc(S(=O)(=O)NCC)c(c(O)c2c1O)Cc1c(S(=O)(=O)NCC)cc2cc(S(=O)(=O)NCC)c(c(O)c2c1O)C3` [KY-148] was tested, and the “protection from CPE, in words” value [1] was “low activity” and the EC100 [2] was 250 µg/mL.

In the case of `COc1c2c(S(=O)(=O)O)cc3cc(S(=O)(=O)O)c(c(OC)c13)Cc1c(S(=O)(=O)O)cc3cc(S(=O)(=O)O)c(c(OC)c3c1OC)Cc1c(S(=O)(=O)O)cc3cc(S(=O)(=O)O)c(c(OC)c3c1OC)Cc1c(S(=O)(=O)O)cc3cc(S(=O)(=O)O)c(c(OC)c3c1OC)C2` [KY-151], the “HIV-RF-II ED100” value ([3]; complete inhibition of syncytia formation) is reported as 125, the IC50 [4] is reported as 50 µg/mL (≈ 34.7 µM) and the IC50 [5] is reported as 1.8 µg/mL (≈ 1.25 µM). For the same compound, the EC50 [6] was 1.5 µg/mL (≈ 1.04 µM), the IC50 [7] was 1.25 µg/mL (≈ 0.867 µM) and the EC100 [2] was 32 µg/mL. The EC50 [8] was > 94 µg/mL.

In the case of `CS(=O)(=O)c1cc2cc(S(C)(=O)=O)c3c(O)c2c(O)c1Cc1c(S(C)(=O)=O)cc2cc(S(C)(=O)=O)c(c(O)c2c1O)Cc1c(S(C)(=O)=O)cc2cc(S(C)(=O)=O)c(c(O)c2c1O)Cc1c(S(C)(=O)=O)cc2cc(S(C)(=O)=O)c(c(O)c2c1O)C3` [KY-158], the EC100 [3] is reported as 7500 µg/mL, the IC50 [5] is reported as > 10 µg/mL and the IC50 [7] is reported as > 10 µg/mL. The “protection from CPE, in words” value [1] was “low activity” and the EC100 [2] was 500 µg/mL.

With `COS(=O)(=O)c1cc2cc(S(=O)(=O)OC)c3c(O)c2c(O)c1Cc1c(S(=O)(=O)OC)cc2cc(S(=O)(=O)OC)c(c(O)c2c1O)Cc1c(S(=O)(=O)OC)cc2cc(S(=O)(=O)OC)c(c(O)c2c1O)Cc1c(S(=O)(=O)OC)cc2cc(S(=O)(=O)OC)c(c(O)c2c1O)C3` [KY-175] the EC100 [3] was 250 µg/mL, the IC50 [5] was > 10 µg/mL and the IC50 [7] was > 10 µg/mL. The “protection from CPE, in words” value [1] was “low activity” and the EC100 [2] was 63 µg/mL.

With `O=S(=O)(O)c1c2c(O)c3c(O)c(c(S(=O)(=O)O)c(Br)c3c1Br)Cc1c(S(=O)(=O)O)c(Br)c3c(Br)c(S(=O)(=O)O)c(c(O)c3c1O)Cc1c(S(=O)(=O)O)c(Br)c3c(Br)c(S(=O)(=O)O)c(c(O)c3c1O)Cc1c(S(=O)(=O)O)c(Br)c3c(Br)c(S(=O)(=O)O)c(c(O)c3c1O)C2` [KY-194] the EC100 [3] was 125 µg/mL, the IC50 [5] was 1 µg/mL (≈ 0.51 µM) and the EC50 [6] was 0.5 µg/mL (≈ 0.255 µM). For the same compound, the IC50 [7] was 1 µg/mL (≈ 0.51 µM), the EC100 [2] was 63 µg/mL and the EC50 [8] was 7.9 µg/mL (≈ 4.03 µM).

`COc1c2c(S(=O)(=O)O)cc3cc(S(=O)(=O)O)c(c(OC)c13)CN(C)Cc1c(S(=O)(=O)O)cc3cc(S(=O)(=O)O)c(c(OC)c3c1OC)CN(C)Cc1c(S(=O)(=O)O)cc3cc(S(=O)(=O)O)c(c(OC)c3c1OC)CN(C)Cc1c(S(=O)(=O)O)cc3cc(S(=O)(=O)O)c(c(OC)c3c1OC)CN(C)C2` [KY-395] was tested, and the “protection from CPE, in words” value [1] was “low activity”.

In the case of `O=C(O)P(=O)(O)O` [PFA, phosphonoformate], the IC90 [9] is reported as > 1000 µM, the IC90 [10] is reported as 180 µM and the IC90 [11] is reported as 3000 µM. The IC90 [12] was 150 µM.

With `Nc1ncnc2c1ncn2CCOCP(=O)(O)O` [PMEA, phosphomethoxyethyladenine] the IC90 [13] was 120 µM, the IC90 [9] was > 1000 µM and the IC90 [10] was 100 µM. For the same compound, the IC90 [11] was > 2000 µM and the IC90 [12] was 155 µM.
